Results taken from EP4707277A1, “NOVEL HETEROCYCLIC AMINE DERIVATIVES AND PHARMACEUTICAL COMPOSITION COMPRISING SAME” (Daewoong Pharmaceutical Co., Ltd., priority 2023, dated 2024).
Where two headings read alike, the source gives them in different places.

How the values were obtained:
BTK = target: T1, BTK (Homo sapiens, UniProt Q06187); assay: Inhibitory activity against BTK, ADP-Glo Kinase system (Promega); format: biochemical
T1 construct: purchased Signalchem B10-10H
Description: (§1) Inhibitory activities against BTK and ITK were measured for the compounds prepared in the above Examples as follows.
(§2) The inhibitory activities against BTK and ITK were evaluated using 'ADP-Glo™ Kinase system' (Promega Corporation). In the case of this evaluation method, activation was measured by quantifying the amount of ADP produced during the kinase reaction, which was utilized to measure the inhibitory activities against BTK and ITK.
(§3) Specifically, the inhibitory activities against BTK and ITK were measured using BTK kinase (Signalchem, B10-10H), ITK kinase (Signalchem, I13-11G-10), and ADP-Glo kinase assay kit (Promega, V9102). Recombinant purified human BTK and ITK were diluted with 1 x kinase reaction buffer (40 mM Tris-Cl, pH 7.5, 20 mM MgCl2, 0.1 mg/mL BSA, 2 mM MnCl2 and 50 uM DTT) and added to a 96 well plate (ITK: final concentration of 4 ng per reaction/BTK: final concentration of 10 ng per reaction). The compounds prepared in the previous Examples were treated so as to be finally a 1% DMSO aqueous solution, and a substrate cocktail containing ATP (1mM or Km ATP (BTK: 10 uM /ITK: 25uM)) and 0.2 ug/ul of Poly (Glu4,Tyr1) peptide (BTK and ITK final concentration) in the total 25 uL reactants was added to a 96-well plate to initiate enzymatic reaction. After incubation (30°C) for 1 hour, equivalent volume (25 uL per reaction) of ADP Glo was added, and incubated (30°C) for 40 minutes at room temperature. Then, a kinase detection reagent (45 uL per reaction) was added, and incubated (30°C) for 30 minutes at room temperature. The kinase activity was measured by chemiluminescence according to the instructions of ADP Glo kinase assay kit, and the inhibitory activity of the compounds according to the present disclosure was calculated. For the analysis of the results of each compound, Microsoft Excel was used, and IC50 values were calculated by GraphPad Prism software.

ITK = target: T2, ITK (Homo sapiens, UniProt Q08881); assay: Inhibitory activity against ITK, ADP-Glo Kinase system (Promega); format: biochemical
T2 construct: purchased Signalchem I13-11G-10
T2 sequence (Q08881 1-620): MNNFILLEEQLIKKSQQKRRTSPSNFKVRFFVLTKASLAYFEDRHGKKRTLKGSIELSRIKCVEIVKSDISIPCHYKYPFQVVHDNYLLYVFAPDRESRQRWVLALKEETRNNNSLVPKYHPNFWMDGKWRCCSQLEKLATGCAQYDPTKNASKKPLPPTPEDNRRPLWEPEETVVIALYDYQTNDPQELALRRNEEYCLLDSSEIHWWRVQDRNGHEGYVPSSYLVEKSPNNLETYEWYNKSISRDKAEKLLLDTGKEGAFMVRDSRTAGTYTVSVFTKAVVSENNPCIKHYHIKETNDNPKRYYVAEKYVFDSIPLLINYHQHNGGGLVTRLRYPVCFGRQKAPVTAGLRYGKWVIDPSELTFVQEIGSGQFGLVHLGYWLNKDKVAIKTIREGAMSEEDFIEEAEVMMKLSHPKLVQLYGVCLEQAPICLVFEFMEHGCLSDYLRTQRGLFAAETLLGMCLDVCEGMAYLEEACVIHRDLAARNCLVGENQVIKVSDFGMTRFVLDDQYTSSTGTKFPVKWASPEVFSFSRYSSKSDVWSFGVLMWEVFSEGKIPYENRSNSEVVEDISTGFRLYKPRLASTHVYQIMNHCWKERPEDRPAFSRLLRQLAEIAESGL
Description: as §1, §2, §3

[1] = Km ATP (BTK: 10 uM), read-out: BTK IC50(nM) Km ATP
[2] = Km ATP (ITK: 25uM), read-out: ITK IC50(nM) Km ATP
[3] = 1mM ATP, read-out: BTK IC50(nM) 1mM ATP
[4] = 1mM ATP, read-out: ITK IC50(nM) 1mM ATP

T1 sequence (Q06187 whole entry): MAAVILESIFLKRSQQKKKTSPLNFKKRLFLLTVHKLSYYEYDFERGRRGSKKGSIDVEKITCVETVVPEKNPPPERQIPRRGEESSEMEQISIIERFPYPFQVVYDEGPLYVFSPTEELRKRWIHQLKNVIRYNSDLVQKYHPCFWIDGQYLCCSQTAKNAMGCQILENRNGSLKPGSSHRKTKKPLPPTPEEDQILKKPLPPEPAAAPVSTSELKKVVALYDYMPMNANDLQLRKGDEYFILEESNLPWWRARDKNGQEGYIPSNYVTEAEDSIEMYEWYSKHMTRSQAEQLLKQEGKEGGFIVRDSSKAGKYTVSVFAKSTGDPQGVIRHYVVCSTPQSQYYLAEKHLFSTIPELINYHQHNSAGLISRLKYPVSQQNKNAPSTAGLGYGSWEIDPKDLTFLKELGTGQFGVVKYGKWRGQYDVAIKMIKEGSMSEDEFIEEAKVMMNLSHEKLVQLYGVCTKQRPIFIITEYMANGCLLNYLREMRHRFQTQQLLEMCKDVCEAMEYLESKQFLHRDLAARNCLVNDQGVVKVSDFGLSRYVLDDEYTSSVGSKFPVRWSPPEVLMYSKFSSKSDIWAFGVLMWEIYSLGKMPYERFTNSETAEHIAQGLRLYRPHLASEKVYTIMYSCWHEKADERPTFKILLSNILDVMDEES

Row | IC50 (BTK; [1]) [nM] | IC50 (ITK; [2]) [nM] | IC50 (BTK; [3]) [nM] | IC50 (ITK; [4]) [nM] | SMILES
1 | ≤ 20 | ≤ 20 |  |  | C=CC(=O)N1CC=C(c2nc(Nc3ncc(C)s3)cc3c2ccn3CC2(C(F)(F)F)CC2)CC1 [Example 17, 1-(4-(6-((5-methylthiazol-2-yl)amino)-1-((1-(trifluoromethyl)cyclopropyl)methyl)-1H-pyrrolo[3,2-c]pyridin-4-yl)-3,6-dihydropyridin-1(2H)-yl)prop-2-en-1-one]
2 | ≤ 20 | ≤ 20 | ≤ 20 | ≤ 20 | C=CC(=O)N1CC=C(c2nc(Nc3ncc(C)s3)cc3c2ccn3CC(F)F)CC1 [Example 12, 1-(4-(1-(2,2-difluoroethyl)-6-((5-methylthiazol-2-yl)amino)-1H-pyrrolo[3,2-c]pyridin-4-yl)-3,6-dihydropyridin-1(2H)-yl)prop-2-en-1-one]
3 |  |  | ≤ 20 | ≤ 20 | C=CC(=O)N1CCC[C@@H]1COc1nc(Nc2ncc(C)s2)cc2c1ccn2CC(F)F [Example 210, (R)-1-(2-(((1-(2,2-difluoroethyl)-6-((5-methylthiazol-2-yl)amino)-1H-pyrrolo[3,2-c]pyridin-4-yl)oxy)methyl)pyrrolidin-1-yl)prop-2-en-1-one]
4 |  |  | ≤ 20 | ≤ 20 | C=CC(=O)N1C2C=C(c3nc(Nc4ncc(C)s4)cc4c3ccn4C(C)C)CC1CCC2 (stereo not shown) [Example 37, 1-(3-(1-isopropyl-6-((5-methylthiazol-2-yl)amino)-1H-pyrrolo[3,2-c]pyridin-4-yl)-9-azabicyclo[3.3.1]non-2-en-9-yl)prop-2-en-1-one]
5 |  |  | ≤ 20 | 20 to 100 | C=CC(=O)N1CC=C(c2nc(Nc3ccncn3)cc3c2ccn3C(C)C)CC1 [Example 43, 1-(4-(1-isopropyl-6-(pyrimidin-4-ylamino)-1H-pyrrolo[3,2-c]pyridin-4-yl)-3,6-dihydropyridin-1(2H)-yl)prop-2-en-1-one]
6 |  |  | ≤ 20 | ≤ 20 | C=CC(=O)N1C[C@@H](Oc2nc(Nc3ncc(C)s3)cc3c2ccn3C(C)C)C[C@H]1C [Example 87, 1-((2R,4S)-4-((1-isopropyl-6-((5-methylthiazol-2-yl)amino)-1H-pyrrolo[3,2-c]pyridin-4-yl)oxy)-2-methylpyrrolidin-1-yl)prop-2-en-1-one]
7 |  |  | ≤ 20 | ≤ 20 | C=CC(=O)N1CCC[C@H](Oc2nc(Nc3ncc(C)s3)cc3c2ccn3CCOC)C1 [Example 148, (S)-1-(3-((1-(2-methoxyethyl)-6-((5-methylthiazol-2-yl)amino)-1H-pyrrolo[3,2-c]pyridin-4-yl)oxy)piperidin-1-yl)prop-2-en-1-one]
8 | ≤ 20 | ≤ 20 |  |  | C=CC(=O)N1CC[C@H](Oc2nc(Nc3ncc(C)s3)cc3c2ccn3CC(C)CC)C1 (stereo partly drawn) [Example 123, 1-((3S)-3-((1-(2-methylbutyl)-6-((5-methylthiazol-2-yl)amino)-1H-pyrrolo[3,2-c]pyridin-4-yl)oxy)pyrrolidin-1-yl)prop-2-en-1-one]
9 | ≤ 20 | ≤ 20 |  |  | C=CC(=O)N1CC[C@H](Oc2nc(Nc3ncc(CC)s3)cc3c2ccn3CC(C)C)C1 [Example 122, (S)-1-(3-((6-((5-ethylthiazol-2-yl)amino)-1-isobutyl-1H-pyrrolo[3,2-c]pyridin-4-yl)oxy)pyrrolidin-1-yl)prop-2-en-1-one]
10 |  |  | ≤ 20 | ≤ 20 | C=CC(=O)N1C[C@@H](Oc2nc(Nc3ncc(C)s3)cc3c2ccn3CC(C)C)C[C@@H]1C [Example 179, 1-((2S,4S)-4-((1-isobutyl-6-((5-methylthiazol-2-yl)amino)-1H-pyrrolo[3,2-c]pyridin-4-yl)oxy)-2-methylpyrrolidin-1-yl)prop-2-en-1-one]
11 | ≤ 20 | ≤ 20 |  |  | C=CC(=O)N1CC[C@H](Oc2nc(Nc3ncc(C)s3)cc3c2ccn3Cc2ccccn2)C1 [Example 117, (S)-1-(3-((6-((5-methylthiazol-2-yl)amino)-1-(pyridin-2-ylmethyl)-1H-pyrrolo[3,2-c]pyridin-4-yl)oxy)pyrrolidin-1-yl)prop-2-en-1-one]
12 |  |  | > 500 | > 500 | C=CC(=O)N1CCC2(CCC(Oc3nc(Nc4ncc(C)s4)cc4c3ccn4CC(C)C)C2)C1 (stereo not shown) [Example 204, 1-(7-((1-isobutyl-6-((5-methylthiazol-2-yl)amino)-1H-pyrrolo[3,2-c]pyridin-4-yl)oxy)-2-azaspiro[4.4]nonan-2-yl)prop-2-en-1-one]
13 |  |  | ≤ 20 | ≤ 20 | C=CC(=O)N1C[C@@H](Oc2nc(Nc3ncc(C)s3)cc3c2ccn3C(C)C)C[C@@H]1C [Example 88, 1-((2S,4S)-4-((1-isopropyl-6-((5-methylthiazol-2-yl)amino)-1H-pyrrolo[3,2-c]pyridin-4-yl)oxy)-2-methylpyrrolidin-1-yl)prop-2-en-1-one]
14 |  |  | > 500 | > 500 | C=CC(=O)N1CC[C@@H](Oc2nc(Nc3ncc(C)s3)cc3c2ccn3CC(C)C)C1 (stereo in doubt) [Example 82, (R)-1-(3-((1-isobutyl-6-((5-methylthiazol-2-yl)amino)-1H-pyrrolo[3,2-c]pyridin-4-yl)oxy)pyrrolidin-1-yl)prop-2-en-1-one]
15 | ≤ 20 | ≤ 20 |  |  | C=CC(=O)N1C2C=C(c3nc(Nc4ncc(C)s4)cc4c3ccn4C3CC3(F)F)CC1CC2 (stereo not shown) [Example 31, 1-(3-(1-(2,2-difluorocyclopropyl)-6-((5-methylthiazol-2-yl)amino)-1H-pyrrolo[3,2-c]pyridin-4-yl)-8-azabicyclo[3.2.1]oct-2-en-8-yl)prop-2-en-1-one]
16 | ≤ 20 | ≤ 20 |  |  | C=CC(=O)N1CC=C(c2nc(Nc3ncc(C)s3)cc3c2ccn3CC2CCC2)CC1 [Example 7, 1-(4-(1-(cyclobutylmethyl)-6-((5-methylthiazol-2-yl)amino)-1H-pyrrolo[3,2-c]pyridin-4-yl)-3,6-dihydropyridin-1(2H)-yl)prop-2-en-1-one]
17 |  |  | > 500 | > 500 | C=CC(=O)N1C[C@H](F)[C@H](Oc2nc(Nc3cccn(C)c3=O)cc3c2ccn3CC(C)C)C1 [Example 199, 3-((4-(((3R,4S)-1-acryloyl-4-fluoropyrrolidin-3-yl)oxy)-1-isobutyl-1H-pyrrolo[3,2-c]pyridin-6-yl)amino)-1-methylpyridin-2(1H)-one]
18 |  |  | > 500 | > 500 | C=CC(=O)N1CC[C@@H](Oc2nc(Nc3ncc(C)s3)cc3c2ccn3C(C)C)C1 [Example 162, (R)-1-(3-((1-isopropyl-6-((5-methylthiazol-2-yl)amino)-1H-pyrrolo[3,2-c]pyridin-4-yl)oxy)pyrrolidin-1-yl)prop-2-en-1-one]
19 |  |  | ≤ 20 | ≤ 20 | C=CC(=O)N1C[C@@H](Oc2nc(Nc3ncc(C)s3)cc3c2ccn3CC)C[C@@H]1C [Example 186, 1-((2S,4S)-4-((1-ethyl-6-((5-methylthiazol-2-yl)amino)-1H-pyrrolo[3,2-c]pyridin-4-yl)oxy)-2-methylpyrrolidin-1-yl)prop-2-en-1-one]
20 | ≤ 20 | ≤ 20 | 20 to 100 | 100 to 500 | C=CC(=O)Nc1ccc(F)c(-c2nc(Nc3ncc(C)s3)cc3c2ccn3CC(F)F)c1 [Example 75, N-(3-(1-(2,2-difluoroethyl)-6-((5-methylthiazol-2-yl)amino)-1H-pyrrolo[3,2-c]pyridin-4-yl)-4-fluorophenyl)acrylamide]
21 |  |  | ≤ 20 | ≤ 20 | C=CC(=O)N1CC(C)(Oc2nc(Nc3ncc(C)s3)cc3c2ccn3C2CCCC2)C1 [Example 165, 1-(3-((1-cyclopentyl-6-((5-methylthiazol-2-yl)amino)-1H-pyrrolo[3,2-c]pyridin-4-yl)oxy)-3-methylazetidin-1-yl)prop-2-en-1-one]
